US20240002936A1, “USE OF BRAIN ORGANOIDS AND SINGLE CELL GENOMICS TO UNDERSTAND AND TREAT NEURODEVELOPMENTAL AND NEUROPSYCHIATRIC DISORDERS” (President and Fellows of Harvard College, priority 2020, published 2024)

Key:
[1] = tested on: PGP1 SUV420H1 control and mutant organoids; experiment: Calcium imaging of spontaneous neuronal activity in intact brain organoids; assay type: cell-based, human; conditions: 20 μM NBQX
human brain organoids = assay type: cell-based

| Structure (SMILES) | calcium activity after blockade of excitatory synapses with NBQX, SUV420H1 mutant organoids ([1]; PGP1 SUV420H1+/- mutant organoids) | calcium activity after blockade of excitatory synapses with NBQX, control organoids ([1]; PGP1 control organoids) | network bursting upon bath application of NBQX ([1]; four month organoids (128 d.i.v.)) | trains of action potentials composing network bursting, sensitivity to TTX (human brain organoids) |
| --- | --- | --- | --- | --- |
| NS(=O)(=O)c1cccc2c1c([N+](=O)[O-])cc1[nH]c(=O)c(=O)[nH]c12 [NBQX, 2,3-dioxo-6-nitro-1,2,3,4-tetrahydrobenzo[f]quinoxaline-7-sulfonamide] | no calcium transients | residual uncorrelated activity | abolished |  |
| NC1=N[C@H](O)[C@H]2[C@H]3O[C@]4(O)O[C@@H]([C@@H](O)[C@@]2(N1)[C@@H]4O)[C@]3(O)CO [TTX, tetrodotoxin] |  |  |  | sensitive |
